Reference: a melting point compilation (Tetko et al.; mined from patent text by program, amines drawn as free bases though some values may be those of a salt)

Question: With `CCCSCC(=O)NNC(=O)N1Cc2ccccc2Oc2ccc(Cl)cc21` as the compound, how does the melting point read?
Answer: 78 to 81 °C

Question: For `CCOC(=O)CCCOc1ccc(C(C)=O)cc1OC`, which melting point is on record?
Answer: 53 to 55 °C

Question: For `COc1cccc(-n2[nH]c(Cc3c(C)n(C(=O)c4ccc(Cl)cc4)c4ccc(OC)cc34)cc2=O)c1`, which melting point is on record?
Answer: 102 to 104 °C

Question: With `COc1cc(Cc2cnc(NCCSCc3csc(CN(C)C)n3)[nH]c2=O)ccn1` as the compound, how does the melting point read?
Answer: 79 to 80 °C

Question: For `CN(C)CC#CCNC(=O)/C=C\C(=O)O`, which melting point is on record?
Answer: 155 to 157 °C

Question: For `CC(C)(C)C=CC1=C(O)C(=O)c2ccccc2C1=O`, which melting point is on record?
Answer: 126 to 128 °C

Question: With `CC(=O)c1ccc(-c2nc(=O)c3ccccc3s2)cc1` as the compound, how does the melting point read?
Answer: 198 °C

Question: With `CCOc1ccn2c(C)c(CCc3ccc4nc(N)oc4c3)nc2c1` as the compound, how does the melting point read?
Answer: 207 to 208 °C

Question: With `CCOC(=O)/C=C(C)/C=C/C1=C(c2ccc3c(c2)C(C)(C)CCC3(C)C)CCC1` as the compound, how does the melting point read?
Answer: 83 to 86 °C

Question: For `CC(C)(C)OC(=O)N[C@@H]1C(=O)N[C@H]1C1CCCCC1` (relative stereo), which melting point is on record?
Answer: 130 to 132 °C

Question: With `COc1ccc(CN2C(=O)[C@@H](NC(=O)Cc3ccccc3)[C@H]2COS(=O)(=O)c2ccc(C)cc2)c(OC)c1` (relative stereo) as the compound, how does the melting point read?
Answer: 109 to 110 °C

Question: With `CC(C)c1nn(-c2ccccn2)c(-c2ccc(F)cc2)c1Br` as the compound, how does the melting point read?
Answer: 98 to 100 °C

Question: For `CCc1ccc(Nc2c(-c3nnc(CC)o3)ccc(F)c2F)c(F)c1`, which melting point is on record?
Answer: 82 to 83 °C

Question: For `Cc1nn(-c2cc(Oc3ccc([N+](=O)[O-])cc3Cl)c(Cl)cc2Cl)c(=O)n1C(F)F`, which melting point is on record?
Answer: 135 to 136 °C

Question: Which melting point does the source give for `N=C(N)Nc1nc(-c2nc(N)n[nH]2)cs1` here?
Answer: 173 to 175 °C

Question: Which melting point does the source give for `O=C(NCc1ccccc1)c1ccc(Cl)nc1` here?
Answer: 113 to 114 °C

Question: With `O=C(NC1CCC(CCN2CCN(c3nccc4c3CCO4)CC2)CC1)C(O)C(F)(F)F` (racemic) as the compound, how does the melting point read?
Answer: 204 °C

Question: For `COCn1ccnc1C(O)(c1ccccc1)c1ccccc1C(C)(C)C` (centres undefined), which melting point is on record?
Answer: 149 to 150 °C

Question: For `C=C(C)C(=O)Oc1ccc(N(C)S(C)(=O)=O)cc1`, which melting point is on record?
Answer: 126 to 127 °C

Question: For `Nc1ccc2c(c1)c(-c1ccc(CO)o1)nn2Cc1ccccc1`, which melting point is on record?
Answer: 156 °C

Question: For `Cc1ccc(S(=O)(=O)OCC2COc3cc(C)ccc3O2)cc1` (centres undefined), which melting point is on record?
Answer: 84 °C

Question: With `COc1cc(/C(C#N)=C\c2ccc(Cl)c(N)c2)cc(OC)c1OC` as the compound, how does the melting point read?
Answer: 150 to 151 °C

Question: Which melting point does the source give for `COc1cccc2c1OC(CN1CC=C(c3c[nH]c4ncccc34)CC1)CO2` (centres undefined) here?
Answer: 207 to 210 °C

Question: With `Cc1ccc2c(CC(=O)O)c(C(=O)c3ccc(Cl)cc3)[nH]c2c1` as the compound, how does the melting point read?
Answer: 193 to 195 °C

Question: Which melting point does the source give for `COc1cccc(NC(=O)C(C)(C)C)c1` here?
Answer: 126 °C

Question: For `CC(C)=CCC/C(C)=C/CSc1nc2cc(C(F)(F)F)ccc2[nH]1`, which melting point is on record?
Answer: 106 to 108 °C

Question: With `Cc1ccc(S(=O)(=O)NC[C@H](C)N)cc1` as the compound, how does the melting point read?
Answer: 82 to 86 °C

Question: Which melting point does the source give for `c1coc(-c2nnc(Sc3cnccn3)o2)c1` here?
Answer: 92 to 93 °C

Question: With `CC(=O)Nc1ccc(OCCOCCO)cc1` as the compound, how does the melting point read?
Answer: 94 °C

Question: With `COc1nc(N)c(Cl)cc1C(=O)CCC1CCN(CC(C)C)CC1` as the compound, how does the melting point read?
Answer: 128 °C

Question: Which melting point does the source give for `Cc1cc(Oc2ccc([N+](=O)[O-])c(Cl)c2)n[nH]1` here?
Answer: 91 to 93 °C

Question: Which melting point does the source give for `COC(=O)c1cc2ccccc2n1-c1ccccn1` here?
Answer: 158 to 159 °C

Question: Which melting point does the source give for `N#Cc1ccc([C@@H]2CNC[C@@]23NC(=O)N(c2cc(Cl)cc(Cl)c2)C3=O)cc1` (relative stereo) here?
Answer: 198 °C

Question: Which melting point does the source give for `COc1ccc(-c2cc3c(OC)cc(OC)cc3nc2OCC#N)cc1` here?
Answer: 149 to 150 °C

Question: Which melting point does the source give for `Oc1ccc(-c2noc3cc(O)ccc23)cc1` here?
Answer: 192 to 194 °C

Question: For `CS(=O)(=O)c1ccc(-n2nc(C(F)(F)F)cc2-c2nc3cc(F)ccc3[nH]2)cc1`, which melting point is on record?
Answer: 278 to 280 °C

Question: Which melting point does the source give for `NCC(=O)Nc1ccc(Cl)cc1C(=NCCO)c1ccccc1F` here?
Answer: 128 to 132 °C

Question: With `CCCCCS(=O)(=O)NC(=O)CCc1ccc(OCCOC)cc1OCC1CCCCC1` as the compound, how does the melting point read?
Answer: 81 to 82 °C

Question: For `Cn1c(NO)cc(=O)n(C2CCCCC2)c1=O`, which melting point is on record?
Answer: 153 to 155 °C

Question: For `Cn1ccc(C(Cl)Cl)n1`, which melting point is on record?
Answer: 38.5 to 40 °C

Question: Which melting point does the source give for `O=C1CCCC2=C1C(c1cccc(F)c1)C1=C(CCCC1)N2` (centres undefined) here?
Answer: 249 to 251 °C

Question: With `S=c1cc(-c2nc[nH]n2)oc2ccccc12` as the compound, how does the melting point read?
Answer: 232 °C

Question: With `CCOC(=O)c1cnn2c1nc(S)c1cnc3c(cnn3CC)c12` as the compound, how does the melting point read?
Answer: 238 to 240 °C

Question: Which melting point does the source give for `CCOCc1nc2c(N)nc3ccccc3c2n1C[C@H]1COC(C)(C)O1` here?
Answer: 130 to 131 °C

Question: For `CC1C(=O)N(c2ccccc2)C(=S)N1c1ccc(Oc2ccccc2Cl)cc1` (centres undefined), which melting point is on record?
Answer: 108 °C

Question: With `COc1c(C)cc(C(=O)N2CCN(c3ncccc3NC(C)C)CC2)cc1C` as the compound, how does the melting point read?
Answer: 89 to 93 °C

Question: With `CC(C)(C)n1nc(-c2ccc(Cl)cc2)c2c(N)c(C#N)cnc21` as the compound, how does the melting point read?
Answer: 213 to 215 °C

Question: With `COC(=O)c1ccnc(N2CCN(Cc3ccccn3)C2=O)c1` as the compound, how does the melting point read?
Answer: 100 to 102 °C

Question: For `COC(=O)c1cc(F)c(F)c2c1NC(C)C2` (centres undefined), which melting point is on record?
Answer: 50 to 52 °C

Question: For `Nc1ncccc1-c1nc2cc(C(F)(F)F)cnc2n1-c1ccc(CNC(=O)c2cccc(F)c2)cc1`, which melting point is on record?
Answer: 230 to 231 °C

Question: Which melting point does the source give for `O=[N+]([O-])c1cc(Cl)c(Cl)c(Cl)c1Cl` here?
Answer: 41 to 44 °C

Question: For `O=C1c2ccccc2-c2c1c1ccccc1c(=O)n2CCNCCO`, which melting point is on record?
Answer: 184 °C

Question: For `CCCCNC(=O)n1cc[nH]c1=S`, which melting point is on record?
Answer: 66 to 68 °C

Question: With `COC(=O)C=CC(=O)NC(N)=O` as the compound, how does the melting point read?
Answer: 112 to 114 °C

Question: Which melting point does the source give for `CC(=O)c1ccc(Nc2nnc(Cc3ccncc3)c3ccccc23)cc1O` here?
Answer: 234 to 236 °C

Question: With `Oc1ccc2c(-c3cccnc3)coc2c1` as the compound, how does the melting point read?
Answer: 167 to 168 °C

Question: For `CC(=O)/C=C1/C(=O)N(c2ccccc2)C1c1ccccc1` (centres undefined), which melting point is on record?
Answer: 158 °C

Question: With `O=S(=O)(c1cccc(C(F)(F)F)c1)c1cc(Br)nc(Br)c1` as the compound, how does the melting point read?
Answer: 156 to 158 °C

Question: For `CCc1nc2c(cnn2CC)c(NC2CCOCC2)c1CNC(=O)c1cccc(C(=O)NCc2cc(Cl)cc(-c3cccc(CN4CCN(C)CC4)c3)c2)c1`, which melting point is on record?
Answer: 116 to 118 °C

Question: Which melting point does the source give for `COCC[C@H]1CN(C2=Nc3ccccc3Nc3ccc(C(F)(F)F)cc32)CCN1C` here?
Answer: 48 to 56 °C

Question: For `O=C(COc1cc(Cl)c(Cl)cc1Cl)OCNC(=O)Oc1ccccc1Cl`, which melting point is on record?
Answer: 119 °C

Question: For `O=C(O)COc1cccc2c1CCc1sc(SCc3ccc(-c4ccccc4)cc3)nc1-2`, which melting point is on record?
Answer: 198 to 200 °C

Question: For `NC(=O)c1cc2c3ccccc3[nH]c(=O)n2n1`, which melting point is on record?
Answer: 355 to 358 °C

Question: With `CCOc1ccc(C2=NN(C3CCOCC3)C(=O)[C@H]3CC=CC[C@@H]23)cc1OCC` (relative stereo) as the compound, how does the melting point read?
Answer: 127 to 129 °C

Question: Which melting point does the source give for `O=C(CC1CCCCC1=O)c1ccc(O)cc1` (centres undefined) here?
Answer: 120 to 125 °C

Question: For `Nc1cc(S)c(Cl)cc1F`, which melting point is on record?
Answer: 64.5 to 66 °C

Question: Which melting point does the source give for `CCCCCCC(C(=O)O)n1cnc2c(NC(=O)c3ccccc3-c3nn[nH]n3)cccc21` (centres undefined) here?
Answer: 130 to 134 °C

Question: With `OC(Cn1cncn1)(Cn1cnc(C=Cc2ccc(C(F)(F)F)cc2)n1)c1ccc(OC(F)(F)F)cc1` (centres undefined) as the compound, how does the melting point read?
Answer: 193 to 195 °C

Question: With `COc1ccc2[nH]c3c(c2c1)C(C(=O)O)CCC3` (centres undefined) as the compound, how does the melting point read?
Answer: 175 to 177 °C

Question: With `O=C1CC(c2ccc(Cl)cc2Cl)Cc2[nH]c3ccc(Cl)cc3c(=O)c21` (centres undefined) as the compound, how does the melting point read?
Answer: 308 to 310 °C

Question: With `COc1cc2ncnc(N3CCN(C(=O)NCc4ccc(C(C)C)cc4)CC3)c2cc1OC` as the compound, how does the melting point read?
Answer: 135 to 136 °C

Question: Which melting point does the source give for `CN1CC[C@@H](c2cc(Cl)ccc2O)[C@@H]1c1ccccc1I` (relative stereo) here?
Answer: 123 °C

Question: Which melting point does the source give for `OC[C@H]1OC[C@@H](n2cnc3cc(Cl)c(Cl)cc32)[C@H](O)[C@@H]1O` here?
Answer: 160 to 162 °C

Question: Which melting point does the source give for `COc1ccc2c(c1)CC(C)CC2=O` (centres undefined) here?
Answer: 70.5 to 70.6 °C
